According to patent publication US20240382629A1, “HETEROBIVALENT AND HOMOBIVALENT AGENTS TARGETING FIBROBLAST ACTIVATION PROTEIN ALPHA AND/OR PROSTATE-SPECIFIC MEMBRANE ANTIGEN” (The Johns Hopkins University, priority 2021, published 2024):
Where “and” joins values, the source holds several entries; their conditions need not be identical. Identical values can stand only once. Like-named read-outs stand apart in the source and are kept apart here.

Assays:
[1] = Biodistribution of representative compounds ([^18F]Sri-07-56, [^18F]Sri-07-52, [^18F]JHU1221823, [^18F]FAPI-74), tissue % ID/g with carrier or blocker; format: in vivo, mouse; settings: for Bladder % ID/g / Blood % ID/g / Brain % ID/g / Fat % ID/g / Femur % ID/g / Heart % ID/g / Kidney % ID/g / Large intestine % ID/g / Liver % ID/g / Lung % ID/g / Muscle % ID/g / Pancreas % ID/g / Salivery gland % ID/g / Small intestine % ID/g / Spleen % ID/g / Stomach % ID/g / Tumor % ID/g: individual mice
Excerpt: Biodistribution of Representative Compounds

[2] = Biodistribution of representative compounds (Example 13), % ID/g in tissues of tumor-bearing mice; format: in vivo, mouse; settings: 60 min, 2 μCi per mouse

N#CC1CCCN1C(=O)CNC(=O)c1ccnc2ccc(OCCCNC(=O)CCc3cn(CCC(NC(=O)c4ccc([18F])nc4)C(=O)NCCCCC(NC(=O)NC(CC(=O)O)C(=O)O)C(=O)O)nn3)cc12 (stereo not drawn) [[^18F]Sri-07-52]
Bladder % ID/g Mean ([1]; 30 min, ~100 μCi per mouse): 1.98 % ID/g | Blood % ID/g Mean ([1]; 30 min, ~100 μCi per mouse): 10.03 % ID/g | Brain % ID/g Mean ([1]; 30 min, ~100 μCi per mouse): 0.21 % ID/g | Fat % ID/g Mean ([1]; 30 min, ~100 μCi per mouse): 0.50 % ID/g | Femur % ID/g Mean ([1]; 30 min, ~100 μCi per mouse): 2.53 % ID/g | Heart % ID/g Mean ([1]; 30 min, ~100 μCi per mouse): 4.58 % ID/g | Kidney % ID/g Mean ([1]; 30 min, ~100 μCi per mouse): 2.71 % ID/g | Large intestine % ID/g Mean ([1]; 30 min, ~100 μCi per mouse): 3.78 % ID/g | Liver % ID/g Mean ([1]; 30 min, ~100 μCi per mouse): 3.20 % ID/g | Lung % ID/g Mean ([1]; 30 min, ~100 μCi per mouse): 6.18 % ID/g | Muscle % ID/g Mean ([1]; 30 min, ~100 μCi per mouse): 2.09 % ID/g | Pancreas % ID/g Mean ([1]; 30 min, ~100 μCi per mouse): 5.86 % ID/g | Salivary gland % ID/g Mean ([1]; 30 min, ~100 μCi per mouse): 13.84 % ID/g | Small intestine % ID/g Mean ([1]; 30 min, ~100 μCi per mouse): 4.36 % ID/g | Spleen % ID/g Mean ([1]; 30 min, ~100 μCi per mouse): 2.03 % ID/g | Stomach % ID/g Mean ([1]; 30 min, ~100 μCi per mouse): 1.71 % ID/g | Tumor % ID/g Mean ([1]; 30 min, ~100 μCi per mouse): 4.99 % ID/g | Bladder % ID/g ([1]; 30 min, ~100 μCi per mouse): 1.47 % ID/g and 2.50 % ID/g | Blood % ID/g ([1]; 30 min, ~100 μCi per mouse): 9.03 % ID/g and 11.04 % ID/g | Brain % ID/g ([1]; 30 min, ~100 μCi per mouse): 0.24 % ID/g and 0.19 % ID/g | Fat % ID/g ([1]; 30 min, ~100 μCi per mouse): 0.36 % ID/g and 0.64 % ID/g | Femur % ID/g ([1]; 30 min, ~100 μCi per mouse): 2.15 % ID/g and 2.91 % ID/g | Heart % ID/g ([1]; 30 min, ~100 μCi per mouse): 4.65 % ID/g and 4.52 % ID/g | Kidney % ID/g ([1]; 30 min, ~100 μCi per mouse): 2.62 % ID/g and 2.80 % ID/g | Large intestine % ID/g ([1]; 30 min, ~100 μCi per mouse): 5.82 % ID/g and 1.74 % ID/g | Liver % ID/g ([1]; 30 min, ~100 μCi per mouse): 3.03 % ID/g and 3.36 % ID/g | Lung % ID/g ([1]; 30 min, ~100 μCi per mouse): 6.53 % ID/g and 5.82 % ID/g | Muscle % ID/g ([1]; 30 min, ~100 μCi per mouse): 2.07 % ID/g and 2.12 % ID/g | Pancreas % ID/g ([1]; 30 min, ~100 μCi per mouse): 6.54 % ID/g and 5.18 % ID/g | Salivery gland % ID/g ([1]; 30 min, ~100 μCi per mouse): 11.28 % ID/g and 16.41 % ID/g | Small intestine % ID/g ([1]; 30 min, ~100 μCi per mouse): 4.18 % ID/g and 4.54 % ID/g | Spleen % ID/g ([1]; 30 min, ~100 μCi per mouse): 2.06 % ID/g and 1.99 % ID/g | Stomach % ID/g ([1]; 30 min, ~100 μCi per mouse): 1.72 % ID/g and 1.71 % ID/g | Tumor % ID/g ([1]; 30 min, ~100 μCi per mouse): 5.57 % ID/g and 4.40 % ID/g | Bladder % ID/g Mean ([1]; 120 min, 20 μCi per mouse): 1.66 % ID/g | Blood % ID/g Mean ([1]; 120 min, 20 μCi per mouse): 5.44 % ID/g | Brain % ID/g Mean ([1]; 120 min, 20 μCi per mouse): 0.22 % ID/g | Fat % ID/g Mean ([1]; 120 min, 20 μCi per mouse): 0.56 % ID/g | Femur % ID/g Mean ([1]; 120 min, 20 μCi per mouse): 2.17 % ID/g | Heart % ID/g Mean ([1]; 120 min, 20 μCi per mouse): 3.20 % ID/g | Kidney % ID/g Mean ([1]; 120 min, 20 μCi per mouse): 2.71 % ID/g | Large intestine % ID/g Mean ([1]; 120 min, 20 μCi per mouse): 1.08 % ID/g | Liver % ID/g Mean ([1]; 120 min, 20 μCi per mouse): 2.33 % ID/g | Lung % ID/g Mean ([1]; 120 min, 20 μCi per mouse): 3.15 % ID/g | Muscle % ID/g Mean ([1]; 120 min, 20 μCi per mouse): 1.53 % ID/g | Pancreas % ID/g Mean ([1]; 120 min, 20 μCi per mouse): 3.98 % ID/g | Salivary gland % ID/g Mean ([1]; 120 min, 20 μCi per mouse): 7.20 % ID/g | Small intestine % ID/g Mean ([1]; 120 min, 20 μCi per mouse): 2.64 % ID/g | Spleen % ID/g Mean ([1]; 120 min, 20 μCi per mouse): 1.51 % ID/g | Stomach % ID/g Mean ([1]; 120 min, 20 μCi per mouse): 1.11 % ID/g | Tumor % ID/g Mean ([1]; 120 min, 20 μCi per mouse): 1.96 % ID/g | Bladder % ID/g ([1]; 120 min, 20 μCi per mouse): 0.97 % ID/g and 2.35 % ID/g | Blood % ID/g ([1]; 120 min, 20 μCi per mouse): 4.70 % ID/g and 6.19 % ID/g | Brain % ID/g ([1]; 120 min, 20 μCi per mouse): 0.32 % ID/g and 0.13 % ID/g | Fat % ID/g ([1]; 120 min, 20 μCi per mouse): 0.74 % ID/g and 0.38 % ID/g | Femur % ID/g ([1]; 120 min, 20 μCi per mouse): 1.99 % ID/g and 2.35 % ID/g | Heart % ID/g ([1]; 120 min, 20 μCi per mouse): 3.20 % ID/g and 3.21 % ID/g | Kidney % ID/g ([1]; 120 min, 20 μCi per mouse): 1.66 % ID/g and 3.77 % ID/g | Large intestine % ID/g ([1]; 120 min, 20 μCi per mouse): 0.85 % ID/g and 1.30 % ID/g | Liver % ID/g ([1]; 120 min, 20 μCi per mouse): 2.28 % ID/g and 2.43 % ID/g | Lung % ID/g ([1]; 120 min, 20 μCi per mouse): 2.65 % ID/g and 3.65 % ID/g | Muscle % ID/g ([1]; 120 min, 20 μCi per mouse): 1.58 % ID/g and 1.47 % ID/g | Pancreas % ID/g ([1]; 120 min, 20 μCi per mouse): 3.00 % ID/g and 4.96 % ID/g | Salivery gland % ID/g ([1]; 120 min, 20 μCi per mouse): 6.20 % ID/g and 8.21 % ID/g | Small intestine % ID/g ([1]; 120 min, 20 μCi per mouse): 2.55 % ID/g and 2.72 % ID/g | Spleen % ID/g ([1]; 120 min, 20 μCi per mouse): 1.54 % ID/g and 1.49 % ID/g | Stomach % ID/g ([1]; 120 min, 20 μCi per mouse): 1.00 % ID/g and 1.23 % ID/g | Tumor % ID/g ([1]; 120 min, 20 μCi per mouse): 1.67 % ID/g and 2.25 % ID/g

N#CC1CCCN1C(=O)CNC(=O)c1ccnc2ccc(OCCCNC(=O)CCc3cn(CCC(NC(=O)c4ccc([18F])nc4)C(=O)NCCNC(=O)CN4CCN(CC(=O)O)CCN(CC(=O)O)CCN(CC(=O)O)CC4)nn3)cc12 (stereo not drawn) [[^18F]Sri-07-56]
% ID/g Blood (individual mouse) [2]: 10.48 % ID/g and 7.56 % ID/g | % ID/g Heart (individual mouse) [2]: 4.72 % ID/g and 3.07 % ID/g | % ID/g Liver (individual mouse) [2]: 2.82 % ID/g and 2.25 % ID/g | % ID/g Lung (individual mouse) [2]: 5.06 % ID/g and 3.66 % ID/g | % ID/g Mean Blood [2]: 9.02 % ID/g | % ID/g Mean Heart [2]: 3.90 % ID/g | % ID/g Mean Liver [2]: 2.54 % ID/g | % ID/g Mean Lung [2]: 4.36 % ID/g | % ID/g Mean Spleen [2]: 1.91 % ID/g | % ID/g Spleen (individual mouse) [2]: 2.19 % ID/g and 1.64 % ID/g | Bladder % ID/g Mean [1]: 0.99 % ID/g | Brain % ID/g Mean [1]: 0.22 % ID/g | Fat % ID/g Mean [1]: 0.89 % ID/g | Femur % ID/g Mean [1]: 1.32 % ID/g | Kidney % ID/g Mean [1]: 2.10 % ID/g | Large intestine % ID/g Mean [1]: 0.93 % ID/g | Muscle % ID/g Mean [1]: 0.90 % ID/g | Pancreas % ID/g Mean [1]: 2.18 % ID/g | Salivary gland % ID/g Mean [1]: 3.55 % ID/g | Small intestine % ID/g Mean [1]: 1.73 % ID/g | Stomach % ID/g Mean [1]: 0.86 % ID/g | Tumor % ID/g Mean [1]: 1.78 % ID/g | Bladder % ID/g [1]: 0.86 % ID/g and 1.12 % ID/g | Brain % ID/g [1]: 0.28 % ID/g and 0.16 % ID/g | Fat % ID/g [1]: 0.38 % ID/g and 1.40 % ID/g | Femur % ID/g [1]: 1.63 % ID/g and 1.01 % ID/g | Kidney % ID/g [1]: 2.24 % ID/g and 1.96 % ID/g | Large intestine % ID/g [1]: 0.90 % ID/g and 0.95 % ID/g | Muscle % ID/g [1]: 0.74 % ID/g and 1.06 % ID/g | Pancreas % ID/g [1]: 2.39 % ID/g and 1.96 % ID/g | Salivery gland % ID/g [1]: 4.40 % ID/g and 2.70 % ID/g | Small intestine % ID/g [1]: 2.06 % ID/g and 1.40 % ID/g | Stomach % ID/g [1]: 1.05 % ID/g and 0.67 % ID/g | Tumor % ID/g [1]: 1.86 % ID/g and 1.70 % ID/g
